Key:
[1] = logP determination via HPLC retention times (calibration with unbranched alkan-2-ones); format: physicochemical; settings: HPLC on reversed-phase C 18 columns, EEC Directive 79/831 Annex V.A8; acidic aqueous mobile phase / acetonitrile, linear gradient 10% to 95% acetonitrile
Excerpt: Die Kalibrierung wurde jeweils mit unverzweigten Alkan-2-onn (3 bis 16 Kohlenstoff Atome) mit bekannten IogP Werten durchgeführt (Bestimmung von den logP Werten über die Retentionszeiten durch lineare Interpolation zwischen zwei bestimmten Alkazionen). Die Lambda-max Werte wurden jeweils in den Maxima der Chromatographie-Signale durch UV Spektren zwischen 190nm und 400nm bestimmt.

Venturia inaequalis = test: Venturia test (apple) / protective; format: in vivo; settings: 100 ppm Wirkstoff; apple plants sprayed protectively; evaluation 10 days after inoculation
Excerpt: Venturia - Test (Apfel) / protektiv
(§1) Zur Herstellung einer zweckmäßigen Wirkstoffzubereitung vermischt man 1 Gewichtsteil Wirkstoff mit den angegebenen Mengen Lösungsmittel und Emulgator und verdünnt das Konzentrat mit Wasser auf die gewünschte Konzentration.
Zur Prüfung auf protektive Wirksamkeit werden junge Pflanzen mit der Wirkstoffzubereitung in der angegebenen Aufwandmenge besprüht. Nach Antrocknen des Spritzbelages werden die Pflanzen mit einer wäßrigen Konidiensuspension des Apfelschorferregers Venturia inaequalis inokuliert und verbleiben dann 1 Tag bei ca. 20°C und 100% relativer Luftfeuchtigkeit in einer Inkubations-kabine.
Die Pflanzen werden dann im Gewächshaus bei ca, 21°C und einer relativen Luftfeuchtigkeit von ca. 90% aufgestellt.
(§2) 10 Tage nach der Inokulation erfolgt die Auswertung. Dabei bedeutet 0% ein Wirkungsgrad, der demjenigen der Kontrolle entspricht, während ein Wirkungsgrad von 100% bedeutet, daß kein Befall beobachtet wird.

Botrytis cinerea = test: Botrytis test (bean) / protective; format: in vivo; settings: 250 ppm Wirkstoff; bean plants sprayed protectively; lesion size 2 days after inoculation
Excerpt: Botrytis - Test (Bohne) / protektiv
as §1
Zur Prüfung auf protektive Wirksamkeit werden junge Pflanzen mit der Wirkstoff-zubereitung in der angegebenen Aufwandmenge besprüht. Nach Antrocknen des Spritzbelages werden auf jedes Blatt 2 kleine mit Botrytis cinerea bewachsene Agarstückchen aufgelegt. Die inokulierten Pflanzen werden in einer abgedunkelten Kammer bei ca. 20°C und 100% relativer Luftfeuchtigkeit aufgestellt.
2 Tage nach der Inokulation wird die Größe der Befallsflecken auf den Blättern ausgewertet. Dabei bedeutet 0% ein Wirkungsgrad, der demjenigen der Kontrolle entspricht, während ein Wirkungsgrad von 100% bedeutet, daß kein Befall beobachtet wird.

[2] = test system: Erysiphe graminis f.sp, hordei; test: Erysiphe test (barley) / protective; format: in vivo; settings: 1000 ppm Wirkstoff; barley plants sprayed protectively; evaluation 7 days after inoculation
Excerpt: Erysiphe-Test (Gerste) / protektiv
as §1
Zur Prüfung auf protektive Wirksamkeit besprüht man junge Pflanzen mit der Wirkstoffzubereitung in der angegebenen Aufwandmenge.
Nach Antrocknen des Spritzbelages werden die Pflanzen mit Sporen von Erysiphe graminis f.sp, hordei bestäubt.
Die Pflanzen werden in einem Gewächshaus bei einer Temperatur von ca. 20°C und einer relativen Luftfeuchtigkeit von ca. 80 % aufgestellt, um die Entwicklung von Mehltaupusteln zu begünstigen.
7 Tage nach der Inokulation erfolgt die Auswertung, Dabei bedeutet 0 % ein Wirkungsgrad, der demjenigen der Kontrolle entspricht, während ein Wirkungsgrad von 100 % bedeutet, daß kein Befall beobachtet wird.

Leptosphaeria nodorum = Leptosphaeria nodorum test (wheat) / protective; format: in vivo; settings: 1000 ppm Wirkstoff; wheat plants sprayed protectively; evaluation 10 days after inoculation
Excerpt: Leptosphaeria nodorum-Test (Weizen) / protektiv
(§3) Zur Herstellung einer zweckmäßigen Wirkstoffzubereitung vermischt man 1 Gewichtsteil Wirkstoff mit den angegebenen Mengen Lösungsmittel und Emulgator und verdünnt das Konzentrat mit Wasser auf die gewünschte Konzentration,
(§4) Zur Prüfung auf protektive Wirksamkeit werden junge Pflanzen mit der Wirkstoffzubereitung in der angegebenen Aufwandmenge besprüht Nach Antrocknen des Spritzbelages werden die Pflanzen mit einer Sporensuspension von Leptosphaeria nodorum besprüht, Die Pflanzen verbleiben 48 Stunden bei 20°C und 100 % relativer Luftfeuchtigkeit in einer Inkubationskabine.
Die Pflanzen werden in einem Gewächshaus bei einer Temperatur von ca. 20°C und einer relativen Luftfeuchtigkeit von 80 % aufgestellt.
as §2

Pyrenophora teres = Pyrenophora teres test (barley) / protective; format: in vivo; settings: 1000 ppm Wirkstoff; barley plants sprayed protectively; evaluation 8 days after inoculation
Excerpt: Pyrenophora teres-Test (Gerste) / protektiv
as §1
as §4, with “angegeben” for “angegebenen”, “besprüht,” for “besprüht”, “Konidiensuspension” for “Sporensuspension”, “Pyrenophora teres besprüht.” for “Leptosphaeria nodorum besprüht,”
Die Pflanzen werden dann in einem Gewächshaus bei einer Temperatur von ca. 20°C und relativen Luftfeuchtigkeit von ca. 80 % aufgestellt.
8 Tage nach der Inokulation erfolgt die Auswertung. Dabei bedeutet 0 % ein Wirkungsgrad, der demjenigen der Kontrolle entspricht, während ein Wirkungsgrad von 100 % bedeutet, daß kein Befall beobachtet wird, […]

[3] = test system: Fusarium nivale (var. majus); test: Fusarium nivale (var. majus) test (wheat) / protective; format: in vivo; settings: 1000 ppm Wirkstoff; wheat plants sprayed protectively; evaluation 6 days after inoculation
Excerpt: Fusarium nivale (var. majus)-Test (Weizen) / protektiv
as §3
Zur Prüfung auf protektive Wirksamkeit werden junge Pflanzen mit der Wirkstoffzubereitung in der angegebenen Aufwandmenge besprüht. Nach Antrocknen des Spritzbelages werden die Pflanzen mit einer Konidiensuspension von Fusarium nivale (var. majus) besprüht.
Die Pflanzen werden in einem Gewächshaus unter lichtdurchlässigen Inkubationshauben bei einer Temperatur von ca.15°C und einer relativen Luftfeuchtigkeit von ca. 100 % aufgestellt.
6 Tage nach der Inokulation erfolgt die Auswertung. Dabei bedeutet 0% ein Wirkungsgrad, der demjenigen der Kontrolle entspricht, während ein Wirkungsgrad von 100% bedeutet, daß kein Befall beobachtet wird.

chromatographic logP [1]	Structure (SMILES)	other results
3.45	Cc1nnc(Cl)c(-c2ccc(F)cc2Cl)c1-c1cccs1 [Beispiel 37]	Wirkungsgrad (Venturia inaequalis): ≥ 70%; Wirkungsgrad (Botrytis cinerea): ≥ 70%
4.16	Cc1nnc(Cl)c(-c2c(F)cccc2Cl)c1-c1ccc(Cl)s1 [Beispiel 94]	Wirkungsgrad (Venturia inaequalis): ≥ 70%; Wirkungsgrad (Botrytis cinerea): ≥ 70%
3.12	Cc1nnc(Cl)c(-c2c(F)cccc2F)c1-c1cccs1 [Beispiel 100]	Wirkungsgrad (Venturia inaequalis): ≥ 70%; Wirkungsgrad (Botrytis cinerea): ≥ 70%; Wirkungsgrad [2]: ≥ 70%; Wirkungsgrad (Leptosphaeria nodorum): ≥ 70%; Wirkungsgrad (Pyrenophora teres): ≥ 70%; Wirkungsgrad [3]: ≥ 70%
2.88	Cc1ccc(-c2c(C)nnc(Cl)c2-c2c(F)cccc2F)nc1C [Beispiel 101]	Wirkungsgrad (Venturia inaequalis): ≥ 70%
3.84	Cc1nnc(Cl)c(-c2c(F)cccc2F)c1-c1ccc(Cl)s1 [Beispiel 103]	Wirkungsgrad (Venturia inaequalis): ≥ 70%; Wirkungsgrad (Botrytis cinerea): ≥ 70%
3.29	Cc1nnc(Cl)c(-c2ccccc2Cl)c1-c1cccs1 [compound 59]	–
4.11	Cc1nnc(Cl)c(-c2c(F)cc(F)cc2F)c1-c1ccc(Cl)s1 [compound 67]	–
3.39	Cc1nnc(Cl)c(-c2cc(F)c(F)cc2F)c1-c1cccs1 [compound 85]	–
4.01	Cc1nnc(Cl)c(-c2cc(F)c(F)cc2F)c1-c1ccc(Cl)s1 [compound 86]	–
3.15	Cc1ccc(-c2c(C)nnc(Cl)c2-c2cc(F)c(F)cc2F)nc1C [compound 87]	–
2.08	Cc1nnc(Cl)c(-c2c(F)cccc2F)c1-c1ccncc1 [compound 102]	–
3.26	Cc1ccc(-c2c(C)nnc(Cl)c2-c2c(F)cccc2F)o1 [compound 104]	–
2.51	Cc1nnc(Cl)c(-c2c(F)cccc2F)c1-c1nccs1 [compound 105]	–
3.7	Cc1nnc(Cl)c(-c2ccccc2F)c1-c1ccc(Cl)s1 [compound 118]	–
3.42	Cc1nnc(Cl)c(-c2cc(F)ccc2F)c1-c1ccc(Cl)s1 [compound 119]	–
4.16	Cc1nnc(Cl)c(-c2cc(Cl)ccc2F)c1-c1ccc(Cl)s1 [compound 120]	–
3.05	Cc1nnc(Cl)c(-c2ccccc2F)c1-c1cccs1 [compound 121]	–
3.34	Cc1nnc(Cl)c(-c2cccc(Cl)c2)c1-c1cccs1 [compound 172]	–
4.07	Cc1nnc(Cl)c(-c2cccc(Cl)c2)c1-c1ccc(Cl)s1 [compound 173]	–
3.65	COc1ccccc1-c1c(Cl)nnc(C)c1-c1ccc(Cl)s1 [compound 182]	–

From EP1972623A1, “Arylpyridazines as fungicides” (Bayer CropScience AG, priority 2007, dated 2008)
